# From PubChem BioAssay (NCI)
# Several values for one entry are separate records, joined by “and”; a condition that tells them apart may be missing. Equal values may be shown once.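 Cultured in 96-well plates, cells were exposed to test compound for 48 hours across five concentrations. Here, GI50 denotes the concentration required for 50% inhibition of growth. The concentration for full growth arrest is given as TGI.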
# Tested on: KM20L2 colon
# Assay: DTP human tumour cell line panel, 48 h
Compound,TGI,GI50
CC1=C(c2cc(C(=O)Nc3ccc(Cl)cc3)nc(=S)[nH]2)Sc2ccccc2N1,> 100 µM,–
O=C(O)CN(c1ccccc1)S(=O)(=O)c1ccc([N+](=O)[O-])cc1,> 100 µM,–
CC1=C(C(=O)NNS(=O)(=O)c2ccc(C)cc2)CC(C(=O)NNS(=O)(=O)c2ccc(C)cc2)=C(C)N1,> 100 µM,–
[F][Sn]([F])([c]1ccccc1)[c]1ccccc1,3.39 µM,1.87 µM
N#CC(C(=O)CCC(=O)Nc1cccc(C(F)(F)F)c1)c1ccc(Cl)cc1 (stereo not drawn),> 100 µM,–
Cc1cc(C(C)(C)C)cc(Cc2cc(C(C)(C)C)cc(Cc3cc(C(C)(C)C)cc(C)c3O)c2O)c1O,29.6 µM,–
COC(=O)/C(=C\c1ccc(N(CCC#N)CCC#N)cc1)NC(=O)c1cc([N+](=O)[O-])ccc1Cl,> 100 µM,–
COC1=C(Br)C(=O)c2nc(C)ccc2C1=O,33.3 µM,–
C/C(CCn1[nH]c(=O)ccc1=O)=N\OCCCc1ccccc1,> 100 µM,–
COC(=O)c1cccc2cccc(C(=O)Nc3ccc(Cl)cc3)c12,> 100 µM,–
N.N.NCCCCCCCCCN.O=C([O-])CC(=O)[O-].O=C([O-])CC(=O)[O-].[Pt+4].[Pt+4],> 100 µM,> 100 µM
CC(=O)OC1C2CCC1C1C2C2(Cl)C(Cl)=C(Cl)C1(Cl)C2(Cl)Cl (stereo not drawn),22.9 µM,–
CC(C(=O)n1c2ccccc2c2ccccc21)N(c1ccccc1)c1ccccc1 (stereo not drawn),33.1 µM,–
CCOC(=O)Cn1c(=O)n(C)c(=O)c2c1ncn2Cc1ccccc1,> 100 µM,–
CCCCc1c2c(nc3c1CCC/C3=C\c1ccccc1)/C(=C/c1ccccc1)CCC2,> 100 µM,–
CC(C)(C)OC(=O)N1N=NC2C1C1CC(OCc3ccccc3)(OCc3ccccc3)C2O1 (stereo not drawn),> 100 µM,–
O=C1C(=O)N(c2cc(Cl)ccc2Cl)C(=O)C(=O)C1c1nc2ccccc2o1,> 100 µM,–
CC1=C(C(=O)Nc2ccccc2)C(c2ccc(C3C(C(=O)Nc4ccccc4)=C(C)NC(C)=C3C(=O)Nc3ccccc3)cc2)C(C(=O)Nc2ccccc2)=C(C)N1,4.94 µM,–
COc1cc(C2C(C(=O)Nc3cc(F)c(F)cc3F)=C(C)NC(C)=C2C(=O)Nc2cc(F)c(F)cc2F)ccc1O,> 100 µM,–
O=c1nc(-c2ccccc2)cc(-c2ccccc2O)[nH]1,> 100 µM,–
Oc1ccc(Br)cc1C=Nc1ccc(N=Cc2cc(Br)ccc2O)cc1,> 100 µM,–
CCOc1ccccc1NC(=O)C(=O)Cc1nc2ccccc2s1,> 100 µM,–
C=CCn1c2c(sc1=S)C(S)N=CN2 (stereo not drawn),> 100 µM,–
Cc1cccc(N=C2NC(=O)C(CC(=O)Nc3cccc(C)c3C)S2)c1 (stereo not drawn),> 100 µM,–
CCOc1ccccc1NC(=O)C(C#N)C1=C(Cl)C(=O)c2ccccc2C1=O (stereo not drawn),–,17.7 µM

# Tested on: 786-0 renal
# Assay: DTP human tumour cell line panel, 48 h
Compound,TGI,GI50
OCC(O)CNc1ccnc2cc(Cl)ccc12 (stereo not drawn),> 100 µM,–
Cc1cccc(C(C)C)c1NC(=O)C(=O)C(C(=O)c1ccccc1F)C1OC(=O)c2ccccc21 (stereo not drawn),36.6 µM,–
Cc1cccc(C)c1NC(=O)C(=O)CC(=O)c1cccc([N+](=O)[O-])c1,> 100 µM,–
CC1=C(c2cc(C(=O)Nc3ccc(Cl)cc3)nc(=S)[nH]2)Sc2ccccc2N1,> 100 µM,–
O=C(O)CN(c1ccccc1)S(=O)(=O)c1ccc([N+](=O)[O-])cc1,> 100 µM,–
CC1=C(C(=O)NNS(=O)(=O)c2ccc(C)cc2)CC(C(=O)NNS(=O)(=O)c2ccc(C)cc2)=C(C)N1,> 100 µM,–
[F][Sn]([F])([c]1ccccc1)[c]1ccccc1,2.98 µM,1.57 µM
N#CC(C(=O)CCC(=O)Nc1cccc(C(F)(F)F)c1)c1ccc(Cl)cc1 (stereo not drawn),> 100 µM,–
Cc1cc(C(C)(C)C)cc(Cc2cc(C(C)(C)C)cc(Cc3cc(C(C)(C)C)cc(C)c3O)c2O)c1O,18.6 µM,–
COC(=O)/C(=C\c1ccc(N(CCC#N)CCC#N)cc1)NC(=O)c1cc([N+](=O)[O-])ccc1Cl,> 100 µM,–
COC1=C(Br)C(=O)c2nc(C)ccc2C1=O,27.2 µM,–
C/C(CCn1[nH]c(=O)ccc1=O)=N\OCCCc1ccccc1,> 100 µM,–
COC(=O)c1cccc2cccc(C(=O)Nc3ccc(Cl)cc3)c12,> 100 µM,–
N.N.NCCCCCCCCCN.O=C([O-])CC(=O)[O-].O=C([O-])CC(=O)[O-].[Pt+4].[Pt+4],> 100 µM,85.8 µM
CC(=O)OC1C2CCC1C1C2C2(Cl)C(Cl)=C(Cl)C1(Cl)C2(Cl)Cl (stereo not drawn),27.1 µM,–
CC(C(=O)n1c2ccccc2c2ccccc21)N(c1ccccc1)c1ccccc1 (stereo not drawn),30.2 µM,–

Compound,TGI,GI50
CCOC(=O)Cn1c(=O)n(C)c(=O)c2c1ncn2Cc1ccccc1,> 100 µM,–
CCCCc1c2c(nc3c1CCC/C3=C\c1ccccc1)/C(=C/c1ccccc1)CCC2,> 100 µM,–
CC(C)(C)OC(=O)N1N=NC2C1C1CC(OCc3ccccc3)(OCc3ccccc3)C2O1 (stereo not drawn),> 100 µM,–
O=C1C(=O)N(c2cc(Cl)ccc2Cl)C(=O)C(=O)C1c1nc2ccccc2o1,> 100 µM,–
CC1=C(C(=O)Nc2ccccc2)C(c2ccc(C3C(C(=O)Nc4ccccc4)=C(C)NC(C)=C3C(=O)Nc3ccccc3)cc2)C(C(=O)Nc2ccccc2)=C(C)N1,8.92 µM,–
O=c1c2ccccc2nc(-c2ccccc2)n1NC(=S)Nc1ccccc1,> 100 µM,–
CCOC(=O)/C(=C/c1cccc(C#N)c1)N(CC)CC,> 100 µM,–
O=S1(=O)OCCOS(=O)(=O)C1Cl,> 100 µM,–
COc1cc(C2C(C(=O)Nc3cc(F)c(F)cc3F)=C(C)NC(C)=C2C(=O)Nc2cc(F)c(F)cc2F)ccc1O,> 100 µM,–
O=c1nc(-c2ccccc2)cc(-c2ccccc2O)[nH]1,> 100 µM,–
Oc1ccc(Br)cc1C=Nc1ccc(N=Cc2cc(Br)ccc2O)cc1,> 100 µM,–
CCOc1ccccc1NC(=O)C(=O)Cc1nc2ccccc2s1,> 100 µM,–
C=CCn1c2c(sc1=S)C(S)N=CN2 (stereo not drawn),> 100 µM,–
Cc1cccc(N=C2NC(=O)C(CC(=O)Nc3cccc(C)c3C)S2)c1 (stereo not drawn),> 100 µM,–
O=C(O)CSc1n[nH]c(Cc2ccccc2)n1,> 100 µM,–
CCOc1ccccc1NC(=O)C(C#N)C1=C(Cl)C(=O)c2ccccc2C1=O (stereo not drawn),3.18 µM and 2.19 µM,0.899 µM

# Tested on: PC-3 prostate
# Assay: DTP human tumour cell line panel, 48 h
row,Compound,TGI
1,CC1=C(C(=O)Nc2ccccc2)C(c2ccc(C3C(C(=O)Nc4ccccc4)=C(C)NC(C)=C3C(=O)Nc3ccccc3)cc2)C(C(=O)Nc2ccccc2)=C(C)N1,12.5 µM

# Tested on: HCT-15 colon
# Assay: DTP human tumour cell line panel, 48 h
Compound,TGI,GI50
OCC(O)CNc1ccnc2cc(Cl)ccc12 (stereo not drawn),> 100 µM,–
Cc1cccc(C(C)C)c1NC(=O)C(=O)C(C(=O)c1ccccc1F)C1OC(=O)c2ccccc21 (stereo not drawn),57.3 µM,–
Cc1cccc(C)c1NC(=O)C(=O)CC(=O)c1cccc([N+](=O)[O-])c1,> 100 µM,–
CC1=C(c2cc(C(=O)Nc3ccc(Cl)cc3)nc(=S)[nH]2)Sc2ccccc2N1,> 100 µM,–
O=C(O)CN(c1ccccc1)S(=O)(=O)c1ccc([N+](=O)[O-])cc1,> 100 µM,–
CC1=C(C(=O)NNS(=O)(=O)c2ccc(C)cc2)CC(C(=O)NNS(=O)(=O)c2ccc(C)cc2)=C(C)N1,> 100 µM,–
[F][Sn]([F])([c]1ccccc1)[c]1ccccc1,3.26 µM,1.65 µM
N#CC(C(=O)CCC(=O)Nc1cccc(C(F)(F)F)c1)c1ccc(Cl)cc1 (stereo not drawn),> 100 µM,–
Cc1cc(C(C)(C)C)cc(Cc2cc(C(C)(C)C)cc(Cc3cc(C(C)(C)C)cc(C)c3O)c2O)c1O,24.3 µM,–
COC(=O)/C(=C\c1ccc(N(CCC#N)CCC#N)cc1)NC(=O)c1cc([N+](=O)[O-])ccc1Cl,> 100 µM,–
COC1=C(Br)C(=O)c2nc(C)ccc2C1=O,27.7 µM,–
C/C(CCn1[nH]c(=O)ccc1=O)=N\OCCCc1ccccc1,> 100 µM,–
COC(=O)c1cccc2cccc(C(=O)Nc3ccc(Cl)cc3)c12,> 53.1 µM,–
N.N.NCCCCCCCCCN.O=C([O-])CC(=O)[O-].O=C([O-])CC(=O)[O-].[Pt+4].[Pt+4],> 100 µM,> 100 µM
CC(C(=O)n1c2ccccc2c2ccccc21)N(c1ccccc1)c1ccccc1 (stereo not drawn),32.8 µM,–
CCOC(=O)Cn1c(=O)n(C)c(=O)c2c1ncn2Cc1ccccc1,> 100 µM,–
CCCCc1c2c(nc3c1CCC/C3=C\c1ccccc1)/C(=C/c1ccccc1)CCC2,> 100 µM,–
CC(C)(C)OC(=O)N1N=NC2C1C1CC(OCc3ccccc3)(OCc3ccccc3)C2O1 (stereo not drawn),> 100 µM,–
O=C1C(=O)N(c2cc(Cl)ccc2Cl)C(=O)C(=O)C1c1nc2ccccc2o1,> 100 µM,–
CC1=C(C(=O)Nc2ccccc2)C(c2ccc(C3C(C(=O)Nc4ccccc4)=C(C)NC(C)=C3C(=O)Nc3ccccc3)cc2)C(C(=O)Nc2ccccc2)=C(C)N1,9 µM,–
O=c1c2ccccc2nc(-c2ccccc2)n1NC(=S)Nc1ccccc1,> 100 µM,–
CCOC(=O)/C(=C/c1cccc(C#N)c1)N(CC)CC,> 100 µM,–
O=c1nc(-c2ccccc2)cc(-c2ccccc2O)[nH]1,> 100 µM,–
Oc1ccc(Br)cc1C=Nc1ccc(N=Cc2cc(Br)ccc2O)cc1,> 100 µM,–
CCOc1ccccc1NC(=O)C(=O)Cc1nc2ccccc2s1,> 100 µM,–
C=CCn1c2c(sc1=S)C(S)N=CN2 (stereo not drawn),> 100 µM,–
O=C(O)CSc1n[nH]c(Cc2ccccc2)n1,> 100 µM,–
CCOc1ccccc1NC(=O)C(C#N)C1=C(Cl)C(=O)c2ccccc2C1=O (stereo not drawn),2.94 µM,–

# Tested on: SK-MEL-28 melanoma
# Assay: DTP human tumour cell line panel, 48 h
Compound,TGI,GI50
OCC(O)CNc1ccnc2cc(Cl)ccc12 (stereo not drawn),> 100 µM,–
Cc1cccc(C(C)C)c1NC(=O)C(=O)C(C(=O)c1ccccc1F)C1OC(=O)c2ccccc21 (stereo not drawn),53.7 µM,–
Cc1cccc(C)c1NC(=O)C(=O)CC(=O)c1cccc([N+](=O)[O-])c1,> 100 µM,–
CC1=C(c2cc(C(=O)Nc3ccc(Cl)cc3)nc(=S)[nH]2)Sc2ccccc2N1,> 100 µM,–
CC1=C(C(=O)NNS(=O)(=O)c2ccc(C)cc2)CC(C(=O)NNS(=O)(=O)c2ccc(C)cc2)=C(C)N1,> 100 µM,–
[F][Sn]([F])([c]1ccccc1)[c]1ccccc1,3.75 µM,1.96 µM
COC(=O)/C(=C\c1ccc(N(CCC#N)CCC#N)cc1)NC(=O)c1cc([N+](=O)[O-])ccc1Cl,> 100 µM,–
COC1=C(Br)C(=O)c2nc(C)ccc2C1=O,33.1 µM,–
C/C(CCn1[nH]c(=O)ccc1=O)=N\OCCCc1ccccc1,> 100 µM,–
COC(=O)c1cccc2cccc(C(=O)Nc3ccc(Cl)cc3)c12,> 100 µM,–
N.N.NCCCCCCCCCN.O=C([O-])CC(=O)[O-].O=C([O-])CC(=O)[O-].[Pt+4].[Pt+4],> 100 µM,87.5 µM
CC(=O)OC1C2CCC1C1C2C2(Cl)C(Cl)=C(Cl)C1(Cl)C2(Cl)Cl (stereo not drawn),34.3 µM,–
CC(C(=O)n1c2ccccc2c2ccccc21)N(c1ccccc1)c1ccccc1 (stereo not drawn),34.4 µM,–
CCOC(=O)Cn1c(=O)n(C)c(=O)c2c1ncn2Cc1ccccc1,> 100 µM,–
CCCCc1c2c(nc3c1CCC/C3=C\c1ccccc1)/C(=C/c1ccccc1)CCC2,> 100 µM,–
CC(C)(C)OC(=O)N1N=NC2C1C1CC(OCc3ccccc3)(OCc3ccccc3)C2O1 (stereo not drawn),91.3 µM,–
O=C1C(=O)N(c2cc(Cl)ccc2Cl)C(=O)C(=O)C1c1nc2ccccc2o1,> 100 µM,–
CC1=C(C(=O)Nc2ccccc2)C(c2ccc(C3C(C(=O)Nc4ccccc4)=C(C)NC(C)=C3C(=O)Nc3ccccc3)cc2)C(C(=O)Nc2ccccc2)=C(C)N1,3.64 µM,–
O=c1c2ccccc2nc(-c2ccccc2)n1NC(=S)Nc1ccccc1,> 100 µM,–
CCOC(=O)/C(=C/c1cccc(C#N)c1)N(CC)CC,> 100 µM,–
O=S1(=O)OCCOS(=O)(=O)C1Cl,> 100 µM,–
COc1cc(C2C(C(=O)Nc3cc(F)c(F)cc3F)=C(C)NC(C)=C2C(=O)Nc2cc(F)c(F)cc2F)ccc1O,> 100 µM,–
O=c1nc(-c2ccccc2)cc(-c2ccccc2O)[nH]1,> 100 µM,–
CCOc1ccccc1NC(=O)C(=O)Cc1nc2ccccc2s1,> 100 µM,–
C=CCn1c2c(sc1=S)C(S)N=CN2 (stereo not drawn),> 100 µM,–
Cc1cccc(N=C2NC(=O)C(CC(=O)Nc3cccc(C)c3C)S2)c1 (stereo not drawn),> 100 µM,–
O=C(O)CSc1n[nH]c(Cc2ccccc2)n1,> 100 µM,–
CCOc1ccccc1NC(=O)C(C#N)C1=C(Cl)C(=O)c2ccccc2C1=O (stereo not drawn),3.62 µM,–
